The text below walks through data of patent US11130748B2, “Compounds” (MISSION THERAPEUTICS LIMITED, priority 2015, dated 2021).

Where two headings read alike, the source gives them in different places.

This experiment deals with USP30 (Homo sapiens (Human), UniProt Q70CQ3). The experiment can be described thus: USP30 biochemical IC50 assay. The method, then: USP30 Biochemical IC50 Assay
Dilution plates were prepared at 21 times the final concentration (2100 μM for a final concentration of 100 μM) in 50% DMSO in a 96-well polypropylene V-bottom plate (Greiner #651201). A typical 8-point dilution series to be 100, 30, 10, 3, 1, 0.3, 0.1, 0.03 μM final. Reactions were performed in duplicate in black 384 well plates (small volume, Greiner 784076) in a final reaction volume of 21 μl. Either 1 μl of 50% DMSO or diluted compound was added to the plate. USP30 was diluted in reaction buffer (40 mM Tris, pH 7.5, 0.005% Tween 20, 0.5 mg/ml BSA, 5 mM beta-mercaptoethanol) to the equivalent of 0.05 μl/well and 10 μl of diluted USP30 was added to the compound. Enzyme and compound were incubated for 30 min at room temp. Reactions were initiated by the addition of 50 nM of TAMRA labelled peptide linked to ubiquitin via an iso-peptide bond as fluorescence polarisation substrate. Reactions were read immediately after addition of substrate and following a 2 hr incubation at room temperature. Readings were performed on a Pherastar Plus (BMG Labtech). λ Excitation 540 nm; λ Emission 590 nm.

Setting [1] is: fluorescence polarisation, TAMRA labelled peptide linked to ubiquitin, 30 min pre-incubation, 2 hr read, read-out: IC50 range.

Sequence of USP30 (Q70CQ3 57-517): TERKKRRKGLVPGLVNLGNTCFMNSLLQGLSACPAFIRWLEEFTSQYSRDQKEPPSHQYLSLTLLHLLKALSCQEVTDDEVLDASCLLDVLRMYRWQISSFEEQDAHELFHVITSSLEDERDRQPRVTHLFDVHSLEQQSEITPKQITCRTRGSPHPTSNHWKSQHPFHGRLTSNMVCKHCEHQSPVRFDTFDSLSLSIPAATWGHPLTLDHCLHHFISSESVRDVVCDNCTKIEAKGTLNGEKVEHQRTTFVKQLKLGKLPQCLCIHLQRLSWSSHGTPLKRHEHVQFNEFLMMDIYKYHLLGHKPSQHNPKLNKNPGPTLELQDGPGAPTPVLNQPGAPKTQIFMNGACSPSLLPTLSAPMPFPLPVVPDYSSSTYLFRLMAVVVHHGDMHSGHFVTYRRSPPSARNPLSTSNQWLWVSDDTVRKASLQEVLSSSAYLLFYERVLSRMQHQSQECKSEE

Turning to `N#CN1CCC(CNc2ccc3ccccc3n2)C1` (centres unmarked) [Example 1, 3-((Quinolin-2-ylamino)methyl)pyrrolidine-1-carbonitrile], the concentration for half-maximal inhibition (IC50) under setting [1] was in the range of 1000 to 10000 nM. Consider `N#CN1CCC(CNc2nc3ccc(F)cc3s2)C1` (centres unmarked) [Example 2, 3-(((6-Fluorobenzo[d]thiazol-2-yl)amino)methyl)pyrrolidine-1-carbonitrile], for which the IC50 under setting [1] lay within 1000 to 10000 nM. On to `N#CN1CCC(CNc2nccc3ccccc23)C1` (centres unmarked) [Example 3, 3-((Isoquinolin-1-ylamino)methyl)pyrrolidine-1-carbonitrile], for which, under setting [1], the IC50 was in the range of 1000 to 10000 nM. Still for that read-out and setting: then `N#CN1CCC(CNc2ncccc2-c2ccccc2)C1` (centres unmarked) [Example 4, 3-(((3-Phenylpyridin-2-yl)amino)methyl)pyrrolidine-1-carbonitrile], with 10000 to 100000 nM. Still for that read-out and setting: then `N#CN1CCC(CNc2cc(-c3ccccc3)ccn2)C1` (centres unmarked) [Example 5, 3-(((4-Phenylpyridin-2-yl)amino)methyl)pyrrolidine-1-carbonitrile], with 100 to 1000 nM. On to `N#CN1CCC(CNc2ccc(-c3ccccc3)cn2)C1` (centres unmarked) [Example 6, 3-(((5-Phenylpyridin-2-yl)amino)methyl)pyrrolidine-1-carbonitrile], for which the IC50 under setting [1] is 1000 to 10000 nM. Regarding `N#CN1CCC(CNc2cccc(-c3ccccc3)n2)C1` (centres unmarked) [Example 7, 3-(((6-Phenylpyridin-2-yl)amino)methyl)pyrrolidine-1-carbonitrile], under setting [1], the concentration for half-maximal inhibition (IC50) lay in the range of 1000 to 10000 nM. The same measure, in the same setting: the figure for `N#CN1CCC(CNc2nccc(-c3ccccc3)n2)C1` (centres unmarked) [Example 8, 3-(((4-Phenylpyrimidin-2-yl)amino)methyl)pyrrolidine-1-carbonitrile] is 1000 to 10000 nM. As for `N#CN1CC[C@H](CNc2ncc(-c3ccccc3)s2)C1` [Example 9, (R)-3-(((5-Phenylthiazol-2-yl)amino)methyl)pyrrolidine-1-carbonitrile], under setting [1], the IC50 was less than 100 nM.

For `N#CN1CC[C@@H](CNc2ncc(-c3ccccc3)s2)C1` [Example 10, (S)-3-(((5-Phenylthiazol-2-yl)amino)methyl)pyrrolidine-1-carbonitrile], the IC50 under setting [1] fell in the range of 100 to 1000 nM. In the case of `N#CN1CCC(CNc2nc3ccc(-c4cn[nH]c4)cc3s2)C1` (centres unmarked) [Example 11, 3-(((6-(1H-Pyrazol-4-yl)benzo[d]thiazol-2-yl)amino)methyl)pyrrolidine-1-carbonitrile], the IC50 under setting [1] was 100 to 1000 nM.

As to `N#CN1CC[C@H](CNc2ncc3ccc(-c4cn[nH]c4)cc3n2)C1` [Example 12, (R)-3-(((7-(1H-Pyrazol-4-yl)quinazolin-2-yl)amino)methyl)pyrrolidine-1-carbonitrile], the IC50 under setting [1] lay within 1000 to 10000 nM. `Cc1nn(C)cc1-c1cccc(NCC2CCN(C#N)C2)c1` (centres unmarked) [Example 13, 3-(((3-(1,3-dimethyl-1H-pyrazol-4-yl)phenyl)amino)methyl)pyrrolidine-1-carbonitrile]: the IC50 under setting [1] lay within 1000 to 10000 nM. With `Cc1nn(C)cc1-c1ccc(NCC2CCN(C#N)C2)cc1` (centres unmarked) [Example 14, 3-(((4-(1,3-Dimethyl-1H-pyrazol-4-yl)phenyl)amino)methyl) pyrrolidine-1-carbonitrile], under setting [1], the IC50 fell in the range of 1000 to 10000 nM. `Cc1nn(C)cc1-c1ccc(NCC2CCN(C#N)C2)c(F)c1` (centres unmarked) [Example 15, 3-(((4-(1,3-Dimethyl-1H-pyrazol-4-yl)-2-fluorophenyl)amino)methyl)pyrrolidine-1-carbonitrile]: the IC50 under setting [1] was 1000 to 10000 nM. Turning to `N#Cc1ccc2cnc(NCC3CCN(C#N)C3)cc2c1` (centres unmarked) [Example 16, 3-(((1-Cyano-pyrrolidin-3-yl)methyl)amino) isoquinoline-6-carbonitrile], the IC50 under setting [1] fell in the range of 1000 to 10000 nM.

Take `CNC(=O)c1ccc2cnc(NCC3CCN(C#N)C3)cc2c1` (centres unmarked) [Example 17, 3-(((1-Cyano-pyrrolidin-3-yl)methyl)amino)-N-methylisoquinoline-6-carboxamide]: under setting [1], the IC50 is 1000 to 10000 nM.

In the case of `N#CN1CCC(CNc2ccnc(N3Cc4ccccc4C3)c2)C1` (centres unmarked) [Example 18, 3-(((2-(isoindolin-2-yl)pyridin-4-yl)amino)methyl)pyrrolidine-1-carbonitrile], the IC50 under setting [1] was 100 to 1000 nM.

For `N#CN1CC[C@@H](CNc2nccc(-c3ccccc3)n2)C1` [Example 19, (S)-3-(((4-Phenylpyrimidin-2-yl)amino)methyl)pyrrolidine-1-carbonitrile], the IC50 under setting [1] was 1000 to 10000 nM.

Take `CN1C(=O)COc2ccc(C(=O)NCC3CCN(C#N)C3)cc21` (centres unmarked) [Example 23, N-((1-Cyanopyrrolidin-3-yl)methyl)-4-methyl-3-oxo-3,4-dihydro-2H-benzo[b][1,4]oxazine-6-carboxamide]: the IC50 under setting [1] lay in the range of 100 to 1000 nM.

`N#CN1CCC(CNC(=O)c2ccc(-c3ccncc3)cc2)C1` (centres unmarked) [Example 24, N-((1-Cyanopyrrolidin-3-yl)methyl)-4-(pyridin-4-yl)benzamide]: the IC50 under setting [1] lay in the range of 100 to 1000 nM.

As to `Cc1ccccc1-c1cc(C(=O)NCC2CCN(C#N)C2)[nH]n1` (centres unmarked) [Example 25, N-((1-Cyanopyrrolidin-3-yl)methyl)-3-(o-tolyl)-1H-pyrazole-5-carboxamide], under setting [1], the IC50 was in the range of 100 to 1000 nM. As for `N#CN1CCC(CNC(=O)c2cc(N3CCCC3)ccn2)C1` (centres unmarked) [Example 27, N-((1-Cyanopyrrolidin-3-yl)methyl)-4-(pyrrolidin-1-yl)picolinamide], under setting [1], the IC50 lay in the range of 100 to 1000 nM. `N#CN1CCC(CNC(=O)c2nn(Cc3ccc(Cl)cc3Cl)c3ccccc23)C1` (centres unmarked) [Example 28, N-((1-Cyanopyrrolidin-3-yl)methyl)-1-(2,4-dichlorobenzyl)-1H-indazole-3-carboxamide] showed a concentration for half-maximal inhibition (IC50) of less than 100 nM. The compound `N#CN1CCC(CNC(=O)c2nn(Cc3ccccc3)c3ccccc23)C1` (centres unmarked) [Example 29, 1-Benzyl-N-((1-cyanopyrrolidin-3-yl)methyl)-1H-indazole-3-carboxamide] came in with an IC50 of 1000 to 10000 nM.

In the case of `N#CN1CCC(CNC(=O)c2ccc(S(=O)(=O)Nc3ccccc3)cc2)C1` (centres unmarked) [Example 30, N-((1-Cyanopyrrolidin-3-yl)methyl)-4-(N-phenylsulfamoyl)benzamide], the IC50 under setting [1] was 100 to 1000 nM. In the case of `COc1ccc(/C=C/C(=O)NCC2CCN(C#N)C2)c(F)c1` (centres unmarked) [Example 32, (E)-N-((1-Cyanopyrrolidin-3-yl)methyl)-3-(2-fluoro-4-methoxyphenyl)acrylamide], the IC50 under setting [1] lay within 100 to 1000 nM.

Regarding `N#CN1CCC(CNC(=O)c2cncc(-c3ccc(F)cc3)c2)C1` (centres unmarked) [Example 33, N-((1-Cyanopyrrolidin-3-yl)methyl)-5-(4-fluorophenyl)nicotinamide], under setting [1], the 50% inhibitory concentration (IC50) lay in the range of 100 to 1000 nM. As for `N#CN1CC[C@@H](CNC(=O)c2ccc3c(c2)NC(=O)CO3)C1` [Example 34, (S)—N-((1-Cyanopyrrolidin-3-yl)methyl)-3-oxo-3,4-dihydro-2H-benzo[b][1,4]oxazine-6-carboxamide], the IC50 under setting [1] was in the range of 1000 to 10000 nM.

As to `N#CN1CC[C@H](CNC(=O)c2cn3cc(Cl)ccc3n2)C1` [Example 35, (R)-6-Chloro-N-((1-cyanopyrrolidin-3-yl)methyl)imidazo[1,2-a]pyridine-2-carboxamide], the IC50 under setting [1] lay within 1000 to 10000 nM. Turning to `N#CN1CC[C@H](CNC(=O)c2cc3ccccn3n2)C1` [Example 36, (R)—N-((1-Cyanopyrrolidin-3-yl)methyl)pyrazolo[1,5-a]pyridine-2-carboxamide], under setting [1], the half-maximal inhibitory concentration (IC50) lay in the range of 1000 to 10000 nM. `CN(CC1CCN(C#N)C1)C(=O)Cc1ccc(-c2ccccc2)cc1` (centres unmarked) [Example 37, 2-([1,1′-biphenyl]-4-yl)-N-((1-cyanopyrrolidin-3-yl)methyl)-N-methylacetamide]: the concentration for half-maximal inhibition (IC50) under setting [1] was in the range of 100 to 1000 nM. Consider `Cn1cc(-c2ccc3nc(C(=O)NCC4CCN(C#N)C4)cn3c2)cn1` (centres unmarked) [Example 39, N-((1-Cyanopyrrolidin-3-yl)methyl)-6-(1-methyl-1H-pyrazol-4-yl)imidazo[1,2-a]pyridine-2-carboxamide], for which the IC50 under setting [1] was 1000 to 10000 nM. With `Cc1cc(C(=O)NCC2CCN(C#N)C2)nn1Cc1ccccc1` (centres unmarked) [Example 40, 1-Benzyl-N-((1-cyanopyrrolidin-3-yl)methyl)-5-methyl-1H-pyrazole-3-carboxamide], the IC50 under setting [1] fell in the range of 1000 to 10000 nM.

For `N#CN1CCC(CNC(=O)Nc2cccc(Cl)c2)C1` (centres unmarked) [Example 41, 1-(3-Chlorophenyl)-3-((1-cyanopyrrolidin-3-yl)methyl)urea], the IC50 under setting [1] was in the range of 100 to 1000 nM. `Cc1ccc(F)c(NC(=O)NCC2CCN(C#N)C2)c1` (centres unmarked) [Example 42, 1-((1-Cyanopyrrolidin-3-yl)methyl)-3-(2-fluoro-5-methylphenyl)urea]: the IC50 under setting [1] lay within 100 to 1000 nM. Take `N#CN1CCC(CNC(=O)Nc2cccc(Cc3ccccc3)c2)C1` (centres unmarked) [Example 43, 1-(3-Benzylphenyl)-3-((1-cyanopyrrolidin-3-yl)methyl)urea]: the half-inhibitory concentration (IC50) under setting [1] lay within 100 to 1000 nM. Consider `N#CN1CCC(CNC(=O)Nc2ccc(Cl)cc2Cl)C1` (centres unmarked) [Example 44, 1-((1-Cyanopyrrolidin-3-yl)methyl)-3-(2,4-dichlorophenyl)urea], for which the IC50 under setting [1] is 100 to 1000 nM. With `N#CN1CCC(CNC(=O)Nc2ccc(C(F)(F)F)cc2)C1` (centres unmarked) [Example 45, 1-((1-Cyanopyrrolidin-3-yl)methyl)-3-(4-(trifluoromethyl)phenyl)urea], the IC50 under setting [1] lay in the range of 100 to 1000 nM. Turning to `Cc1nc(-c2cccc(S(=O)(=O)N(C)CC3CCN(C#N)C3)c2)cs1` (centres unmarked) [Example 46, N-((1-Cyanopyrrolidin-3-yl)methyl)-N-methyl-3-(2-methylthiazol-4-yl)-benzenesulfonamide], under setting [1], the IC50 fell in the range of 100 to 1000 nM. `CN(CC1CCN(C#N)C1)S(=O)(=O)c1ccc(Oc2ccc(C(F)(F)F)cn2)cc1` (centres unmarked) [Example 47, N-((1-Cyanopyrrolidin-3-yl)methyl)-N-methyl-4-((5-(trifluoromethyl)pyridin-2-yl)oxy)benzenesulfonamide]: the IC50 under setting [1] is 100 to 1000 nM.

The IC50 is the concentration at which inhibition is half-maximal.
